Experimental data taken from publication PMC11385044 (Chemical Science, 2024).
*1 amine or outer side, *2 acyl side, *3 side chain or, on linkers, in order; H or OH if unused. Where a SMILES comes first, the peptide text is derived from it. Bridges are numbered along the chain shown (N, C = ends). Roman numbers before positions name the chains, in order. The star is where a group is joined. FITC = O=C1OC2(c3ccc(O)cc3Oc3cc(O)ccc32)c2ccc(NC(=S)*)cc21; X1 = O=C(CCc1cn(CC(=O)[*:2])nn1)[*:1]

Target: ubiquitin (Ub) (Homo sapiens, UniProt P0CG47)
Assay: Fluorescence polarization
Assay type: binding
Conditions: comparison with native UIM-1 peptide 12

CC[C@H](C)[C@H](NC(=O)[C@H](C)NC(=O)[C@@H](NC(=O)[C@H](CCC(=O)O)NC(=O)[C@@H](NC(=O)[C@H](CCC(=O)O)NC(=O)[C@H](CC(C)C)NC(=O)[C@H](CCC(=O)O)NC(=O)[C@H](CCC(=O)O)NC(=O)[C@@H](NC(=O)[C@H](CCC(=O)O)NC(=O)[C@H](CCC(N)=O)NC(=O)[C@H](CCC(=O)O)NC(=O)CCc1cn(CC(=O)N[C@@H](CCCCN)C(=O)N[C@@H](CCC(N)=O)C(=O)N[C@@H](CCCCN)C(=O)N[C@H](C(=O)N[C@@H](C)C(=O)N[C@@H](C)C(=O)N[C@@H](CC(C)C)C(=O)N[C@@H](CCCCN)C(=O)N[C@@H](CCCCNC(=S)Nc2ccc3c(c2)C(=O)OC32c3ccc(O)cc3Oc3cc(O)ccc32)C(=O)N[C@@H](CCCCN)C(=O)N[C@H](C(=O)N[C@@H](C)C(=O)N[C@@H](C)C(=O)N[C@@H](CC(C)C)C(=O)N[C@@H](CCCCN)C(=O)N[C@@H](CCC(N)=O)C(=O)N[C@@H](CCCCN)C(=O)N[C@H](C(=O)N[C@@H](CCC(N)=O)C(=O)NCC(N)=O)[C@@H](C)CC)[C@@H](C)CC)[C@@H](C)CC)nn1)[C@@H](C)CC)[C@@H](C)CC)[C@@H](C)CC)C(=O)N[C@@H](CC(C)C)C(=O)N[C@@H](CC(C)C)C(=O)N[C@@H](CO)C(=O)N[C@@H](CCC(=O)O)C(=O)N[C@H](C(=O)N[C@@H](CCC(=O)O)C(=O)NCC(N)=O)[C@@H](C)CC [Peptide 10] (I: EQEIEELEIEIAILLSEIEG-NH2 / II: KQKIAALKK(FITC)KIAALKQKIQG-NH2; linker I:N-II:N via X1)
Ub binding relative to native UIM-1 peptide: binds more strongly than the native UIM-1 peptide
